IC50 and EC50 data for 11 compounds are collected here from patent publication US20160002204A1 (Board of Regents, The University of Texas System, priority 2014, published 2016).

In general, IC50 refers to the concentration needed to halve the response being measured. Broadly, the EC50 is the concentration that produces a half-maximal response.

Test [1] concerns the target T1, GLS1 (purified recombinant human GAC) (Homo sapiens, UniProt O94925).
T1 sequence (O94925 55-598 isoform O94925-3 limits assumed): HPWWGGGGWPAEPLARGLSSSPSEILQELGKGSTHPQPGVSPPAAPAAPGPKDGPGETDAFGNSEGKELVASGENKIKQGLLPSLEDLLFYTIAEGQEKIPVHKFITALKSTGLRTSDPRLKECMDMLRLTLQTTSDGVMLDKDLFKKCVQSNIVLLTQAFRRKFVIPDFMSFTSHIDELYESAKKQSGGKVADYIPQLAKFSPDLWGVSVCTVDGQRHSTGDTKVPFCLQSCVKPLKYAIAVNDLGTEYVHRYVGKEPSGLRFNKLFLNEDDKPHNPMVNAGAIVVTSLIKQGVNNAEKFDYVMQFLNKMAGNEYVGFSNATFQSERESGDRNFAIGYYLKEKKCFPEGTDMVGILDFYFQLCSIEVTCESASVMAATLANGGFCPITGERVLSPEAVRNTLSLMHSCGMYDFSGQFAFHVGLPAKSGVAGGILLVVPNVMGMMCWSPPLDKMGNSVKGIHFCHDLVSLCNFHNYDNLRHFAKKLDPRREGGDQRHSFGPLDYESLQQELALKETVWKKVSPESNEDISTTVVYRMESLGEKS
The test is described as follows: GLS1 enzymatic activity assay (dual-coupled, Amplex UltraRed/resorufin). It is filed as biochemical. On the procedure:
GLS1 Enzymatic Activity Assay
The inhibition of purified recombinant human GAC by varying concentrations of inhibitors is assessed via a dual-coupled enzymatic assay. The glutamate produced by the glutaminase reaction is used by glutamate oxidase to produce α-ketoglutarate, ammonia, and hydrogen peroxide, with this hydrogen peroxide subsequently being used by horseradish peroxidase to produce resorufin in the presence of Amplex UltraRed. The assay buffer consisted of 50 mM Hepes (pH 7.4), 0.25 mM EDTA and 0.1 mM Triton X-100. GAC was incubated with potassium phosphate (10 minutes at room temperature) prior to incubation with inhibitor (10 minutes at room temperature). The final reaction conditions were as follows: 2 nM GAC, 50 mM potassium phosphate, 100 mU/mL glutamate oxidase (Sigma), 1 mM glutamine (Sigma), 100 mU/mL horseradish peroxidase (Sigma), 75 μM Amplex UltraRed (Life Technologies), and 1% (v/v) DMSO. The production of resorufin was monitored on a Perkin Elmer Envision plate reader (excitation 530 nm, emission 590 nm) either in a kinetics or endpoint mode (at 20 minutes). IC50 values were calculated using a four-parameter logistic curve fit.

Test [2] has as its system A549 cells. The test is described as follows: A549 proliferation (viability) assay, Cell Titer Fluor, 72 hours. It is filed as cell-based. As to conditions: Homo sapiens. On the procedure:
A549 cells were routinely maintained in RPMI 1640 media (Gibco catalog number 11875-093) supplemented with 10% dialyzed fetal bovine serum using a humidified incubator (37° C., 5% CO2 and ambient O2). In preparation for the viability assay, cells were inoculated into 384-well black CulturPlates (Perkin Elmer) at a density of 1000 cells/well in a volume of 40 uL. Following a 24-hour incubation at 37° C., 5% CO2 and ambient O2, cells were treated with compound (10 uL) in a final DMSO concentration of 0.5% (v/v). The microplates were then incubated for 72 hours (37° C., 5% CO2 and ambient O2). Cell Titer Fluor (Promega) was subsequently added (10 uL of 6× reagent) and mixed for 15 minutes at room temperature. The plates were then incubated for 30 minutes (37° C., 5% CO2 and ambient O2) and fluorescence was subsequently read on the Perkin Elmer Envision plate reader. EC50 values were calculated using a four-parameter logistic curve fit.

For `O=C(Cc1ccccc1)Nc1ccc(CCCCn2ccc(NC(=O)[C@@H](O)c3ccccc3)nc2=O)nn1` [Example 22, (S)-2-hydroxy-N-(2-oxo-1-(4-(6-(2-phenylacetamido)pyridazin-3-yl)butyl)-1,2-dihydropyrimidin-4-yl)-2-phenylacetamide], the IC50 in test [1] is below 100 nM. The EC50 in test [2] was 500 to 5000 nM.
In the same order, the values of `O=C(Cc1cccc(OC(F)(F)F)c1)Nc1ccc(CCCCn2ccc(NC(=O)NCc3ccccc3)nc2=O)nn1` [Example 23, N-(6-(4-(4-(3-benzylureido)-2-oxopyrimidin-1(2H)-yl)butyl)pyridazin-3-yl)-2-(3-(trifluoromethoxy)phenyl)acetamide] are below 100 nM and 500 to 5000 nM.
In the same order, the values of `O=C(Cc1cccc(OC(F)(F)F)c1)Nc1ccc(CCCCn2ccc(NC(=O)OCc3ccccc3)nc2=O)nn1` [Example 24, Benzyl(2-oxo-1-(4-(6-(2-(3-(trifluoromethoxy)phenyl)acetamido)pyridazin-3-yl)butyl)-1,2-dihydropyrimidin-4-yl)carbamate] are below 100 nM and below 100 nM.
In the same order, the values of `O=C(Nc1ccn(CCCCc2nnc(C(=O)NCc3cccc(OC(F)(F)F)c3)s2)c(=O)n1)OCc1ccccc1` [Example 28, Benzyl 2-oxo-1-(4-(5-(3-(trifluoromethoxy)benzylcarbamoyl)-1,3,4-thiadiazol-2-yl)butyl)-1,2-dihydropyrimidin-4-ylcarbamate] are below 100 nM and 100 to 500 nM.
With `O=C(Cc1ccccc1)Nc1nnc(CCCCn2cc3cc(Cc4ccccc4)[nH]c3nc2=O)s1` [Example 29, N-(5-(4-(6-benzyl-2-oxo-2,7-dihydro-3H-pyrrolo[2,3-d]pyrimidin-3-yl)butyl)-1,3,4-thiadiazol-2-yl)-7-phenylacetamide], the IC50 in test [1] was below 100 nM. The compound further had a concentration giving a half-maximal response (EC50) in test [2] above 5000 nM.
In the same order, the values of `O=C(Cc1ccccc1)Nc1ccn(CCCCc2nnc(NC(=O)Cc3ccccc3)s2)c(=O)c1` [Example 31, N-(2-oxo-1-{4-[5-(2-phenylacetamido)-1,3,4-thiadiazol-2-yl]butyl}-1,2-dihydropyridin-4-yl)-2-phenylacetamide] are below 100 nM and 500 to 5000 nM.
Taken in the same sequence, the figures for `CNC(=O)c1cn(CCCCn2ccc(NC(=O)Cc3ccccc3)cc2=O)nn1` [Example 32, N-methyl-1-{4-[2-oxo-4-(2-phenylacetamido)-1,2-dihydropyridin-1-yl]butyl}-1H-1,2,3-triazole-4-carboxamide] were 500 to 5000 nM and above 5000 nM.
Take `O=C(Cc1ccccc1)Nc1ccn(CCCCn2cc(C(=O)NCc3cccc(OC(F)(F)F)c3)nn2)c(=O)c1` [Example 33, 1-{4-[2-oxo-4-(2-phenylacetamido)-1,2-dihydropyridin-1-yl]butyl}-N-{[3-(trifluoromethoxy)phenyl]methyl}-1H-1,2,3-triazole-4-carboxamide]: the IC50 in test [1] is below 100 nM. The same compound returned an EC50 in test [2] of 100 to 500 nM.
Taken in the same sequence, the figures for `O=C(Cc1ccccc1)Nc1ccn(CCCCn2cc(C(=O)NCc3ccccn3)nn2)c(=O)c1` [Example 34, 1-{4-[2-oxo-4-(2-phenylacetamido)-1,2-dihydropyridin-1-yl]butyl}-N-(pyridin-2-ylmethyl)-1H-1,2,3-triazole-4-carboxamide] were 100 to 500 nM and above 5000 nM.
In the same order, the values of `CC(C)CNC(=O)c1cn(CCCCn2ccc(NC(=O)Cc3ccccc3)cc2=O)nn1` [Example 35, N-(2-methylpropyl)-1-{4-[2-oxo-4-(2-phenylacetamido)-1,2-dihydropyridin-1-yl]butyl}-1H-1,2,3-triazole-4-carboxamide] are 500 to 5000 nM and above 5000 nM.
In the same order, the values of `O=C(Cc1ccccc1)Nc1ccn(CCCCn2cc(C(=O)NCC3CCCCC3)nn2)c(=O)c1` [Example 36, N-(cyclohexylmethyl)-1-{4-[2-oxo-4-(2-phenylacetamido)-1,2-dihydropyridin-1-yl]butyl}-1H-1,2,3-triazole-4-carboxamide] are 100 to 500 nM and 500 to 5000 nM.
